# According to patent publication US10285981B2, “Compositions and methods for treating amyotrophic lateral sclerosis in responders” (KNOPP BIOSCIENCES LLC, priority 2013, dated 2019):
# Like-named read-outs stand apart in the source and are kept apart here.
# Experiments:
# [1] = system: subjects with ALS
# From the text: Subjects with possible, probable, probable laboratory-supported, or definite ALS as defined by the El Escorial criteria who had ALS symptoms for ≤24 months at the time of entry into the study and a slow vital capacity of ≥65% of predicted were eligible to participate in this study. This study is described in more detail in the Examples.
# Eligible subjects were between 18-80 years of age with a clinical diagnosis of possible, laboratory-supported probable, probable, or definite ALS, either familial or sporadic, in accordance with the revised El Escorial criteria. Subjects were required to have had onset of first ALS symptoms ≤24 months before Day 1 and an upright vital capacity of ≥65% of predicted value for age, height, and gender at screening. […] Subjects had to be able to swallow oral medications on Day 1 (FIG. 1).
# Clinic visits and telephone calls/home visits may have occurred on alternating months. The primary efficacy analysis was a Combined Assessment of Function and Survival (CAFS), based on changes from baseline in the ALS Functional Rating Score-Revised (ALSFRS-R) scores or time to death using follow-up data through 12 months. […] Efficacy data was evaluated using 2-sided tests with α=0.05 for the primary and secondary endpoints. Adverse events and other safety indices were monitored throughout the study.
# The primary endpoint of the method of Example 2 was the Combined Assessment of Function and Survival (CAFS), a joint-rank test that is a valid statistical approach for analyzing functional outcomes adjusted for mortality. The CAFS ranks subjects' outcomes based on both time to death and change from baseline in ALSFRS-R score using follow-up data through 12 months. CAFS is predicated on the comparison of outcomes of each subject to all other subjects in the study. A higher rank is assigned to subjects who survive versus those who die, and the change from baseline in the ALSFRS-R is used to rank each survivor. A higher CAFS ranking indicates a better global clinical outcome.
# The ALSFRS-R score, VC, and McGill QoL-SIS scores were summarized by treatment group with the rate of change estimate derived from a linear mixed-effects model. Linear decline of the ALSFRS-R score over time has been shown previously. […] A mixed-model analysis was used to fit a model that included time, treatment group, and the interaction between time and treatment group simultaneously. The estimated coefficient of time, the slope, or rate of change, for each treatment group was used to test for differences between the treatment groups. Coefficient of time estimate along with its standard error was reported.
# [2] = system: subjects with ALS; details: for decline in levels of serum creatinine: Part One; for mean decline in serum creatinine: Week 28
# From the text: Therefore, the Part 2, Week 28 visit was pre-specified as the primary time-point for all Part 2 data analyses.
# [3] = system: subjects with ALS; remark: listed apart in the source
# From the text: Response is defined according to two criteria:
# This analysis examined subgroup definitions based on both single and dual attribute criteria, and evaluated the performance of each subgroup with respect the two criteria above. To facilitate ranking of subgroups, we have defined a scoring metric which aggregates these two-dimensional scores into a single scalar called “score” in our report files. Larger scores are better: scores increase when mortality rates decrease, and when ALSFRS-R changes from baseline become more positive (i.e. score decreases are reduced). This scoring scheme is somewhat arbitrary; it merely serves to guide our maximization process and provide convenient rankings of subgroup quality. The definition of the score could certainly be altered to reflect different priorities on treatment effects with respect to mortality or disease progression. For this reason, we provide a complete spreadsheet of results, which can be re-sorted and re-ordered according to arbitrary balancing criteria.
# 1. Mortality for patients is defined by the value of the “end_status_study” field. Patients are deemed dead if and only if the value of this field is “DEATH”; any other value is interpreted as survival;
# 2. Disease symptom progression is measured in terms of the change in total ALSFRS-R score from baseline, as reported in the “change from baseline” attribute of each patient. Specifically, we take the value of “change from baseline” that is reported at the final measurement time for each patient.;
# 4. We impose minimum subgroup size filters on our results to exclude promising signals which arise due to sampling artifacts, or which would be too narrow for consideration in future studies. Analyses were run for minimum group sizes of both 50 patients (data not shown) and 100 patients (i.e. for a cutoff of N, we require at least N patients in that subgroup for both the treated and untreated groups).
# [4] = system: dopamine receptors
# [5] = system: rodents; details: approximately
# [6] = system: rodents; details: single oral dose, and above; cited from earlier work
# [7] = system: dogs; details: single oral dose, and above; cited from earlier work
# [8] = system: monkeys; details: single oral dose; cited from earlier work
# [9] = system: humans; details: cited from earlier work
# [10] = system: ALS subjects; details: human, in vivo
# [11] = system: ALS subjects; details: even after prolonged treatment; cited from earlier work
# [12] = system: subjects with ALS; details: larger Phase III study; cited from earlier work
# [13] = high-creatinine group, through 12 months
smiles,measurement,setting,value
"CCCN[C@@H]1CCc2nc(N)sc2C1 [dexpramipexole, (6R)-2-amino-4,5,6,7-tetrahydro-6-(propylamino)-benzothiazole]",ALSFRS-R score change vs placebo group (exploratory analysis with covariate adjustment),"[1]; 300 mg group, Month 18",significant improvement
same,"ALSFRS-R subdomain: behaviors associated with bulbar function, decline over baseline",[1]; 300 mg/day,less dramatic decline
same,ALSFRS-R subdomain: behaviors associated with fine motor skills,[1]; 300 mg/day,dose dependent improvement over baseline
same,"combined assessment of function and survival (CAFS), least square means","[1]; high-creatinine group (baseline serum creatinine > about 72 μmol/L), 150 mg twice daily, through 12 months",184.86
same,"slope of decline on the ALS Functional Rating Scale (Revised), least square means","[1]; high-creatinine group, 150 mg twice daily, through 12 months",−0.925
same,"ALSFRS-R slope of decline, improvement in least square means between treatment and placebo",[1]; [13],18%
same,CAFS improvement in least square means between treatment and placebo,[1]; [13],19%
same,rate of mortality (Kaplan-Meier analysis),"[1]; high-creatinine group, treatment group at 12 months",10.3%
same,decline in levels of serum creatinine,[2]; 50 mg group,0.05
same,decline in levels of serum creatinine,[2]; 150 mg group,0.06
same,decline in levels of serum creatinine,[2]; 300 mg group,0.0
same,combined assessment of function and survival (CAFS),"[2]; Part Two, 300 mg daily dose, p=0.040",significantly reduced reduction
same,mean decline in serum creatinine,"[2]; Part Two, daily dose 50 mg",−0.12
same,mean decline in serum creatinine,"[2]; Part Two, daily dose 300 mg",zero
same,"relative change in the mean ALSFRS-R change from baseline, treated vs untreated",[3]; definite diagnosis subgroup,−8.3%
same,"abs_mort_rate_change: absolute difference in mortality rate, treated vs untreated",[3]; in vivo,−22.6%
same,"mort rate change: relative change in mortality rate, treated vs untreated",[3]; in vivo,−67.9%
same,mortality rate lower for treated patients,[3]; in vivo,22.6 percentage points
same,score: combined score of mortality and ALSFRS-R treatment effects,[3]; in vivo,0.343
same,trtd_mort_rate: mortality rate of treated patients,[3]; in vivo,10.7%
same,"relative change in the mean ALSFRS-R change from baseline, treated vs untreated","[3]; subgroup mean_pr_interval>184.5, minimum group size 100",−20.5%
same,"abs_alsfrs_change: absolute difference in mean ALSFRS-R total scores, treated vs untreated",[3]; subgroup min_pr_interval>195,5.623 points
same,"alsfrs change: relative change in mean ALSFRS-R change from baseline, treated vs untreated","[3]; subgroup min_pr_interval>195, minimum group size 50",−26.6%
same,functional affinity difference between pramipexole and dexpramipexole for dopamine receptors,[4],"10,000-20,000 folds"
"CCCN[C@H]1CCc2nc(N)sc2C1 [pramipexole, (6S)-2-amino-4,5,6,7-tetrahydro-6-(propylamino)benzothiazole]","human dose equivalent to the rodent lethal dose, 70 kilogram individual",[5],500-850 milligrams
same,dose at which death occurred,[6],70-105 milligrams per kilogram
same,dose at which vomiting occurred,[7],≥ 0.0007 milligrams per kilogram
same,dose at which major excitation was displayed,[8],3.5 milligrams per kilogram
same,maximally tolerated dose for humans,[9]; Boehringer Ingelheim product insert for Mirapex,4.5 milligrams per day
same,initial single dose not tolerated,[9]; human subjects,greater than 0.20 milligrams
same,dose shown to cause somnolence,"[9]; humans, as low as",1.5 milligrams
Nc1nc2ccc(OC(F)(F)F)cc2s1 [riluzole],"headaches reported, subjects receiving riluzole vs those not receiving riluzole",[10],four times as many subjects
same,effect on ALSFRS-R score,[11],has not demonstrated any effect
CC(=O)N1N=C(c2ccc(N)cc2)c2cc3c(cc2C[C@H]1C)OCO3 [talampanel],treatment effects in ALS,[12],failed to show any treatment effects
